{
  "source": "patent US9586931B2",
  "about": "(Merck Sharp & Dohme Corp., priority 2012, dated 2017)",
  "data": [
    {"target": "T1, recombinant human GST-Syk (Homo sapiens, UniProt P43405)", "T1 construct": "purchased Carna Biosciences 08-176", "experiment": "Homogeneous Time-Resolved Fluorescence (HTRF) assay for the recombinant human Syk enzyme", "type": "biochemical", "conditions": "recombinant human GST-Syk 5 pM, ATP 25 μM, 10-dose titration 10 μM to 0.508 nM; read-out: rhSYK Activity IC50", "how_it_was_run": "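Detection used time-resolved fluorescence 30 min after adding a quench mix (40 mM EDTA, 15 mM Tris pH 7.5, 0.01% Tween 20) containing 2 nM Europium anti-pTyr antibody and 70 nM streptavidin-APC. This followed 45 min of room-temperature peptide phosphorylation by recombinant GST-tagged human Syk.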", "units": {"IC50": "nM"}, "values": [
      {"molecule": "Cc1cc(Nc2cc(C(F)F)ccn2)nc(-c2cn(C(C)C(C)(O)CO)nn2)c1", "note": "(single isomer, unassigned) [Example 30.7, 3-[4-(6-{[4-(difluoromethyl)pyridin-2-yl]amino}-4-methylpyridin-2-yl)-1H-1,2,3-triazol-1-yl]-2-methylbutane-1,2-diol]", "IC50": 1.4},
      {"molecule": "Cc1cc(Nc2cc(C(F)(F)F)ccn2)nc(-c2cn(C(C)C(=O)NCc3cc(-c4ccco4)on3)nn2)c1", "note": "(stereo not drawn) [Example 1.37, N-[(5-furan-2-ylisoxazol-3-yl)methyl]-2-[4-(4-methyl-6-{[4-(trifluoromethyl)pyridin-2-yl]amino}pyridin-2-yl)-1H-1,2,3-triazol-1-yl]propanamide]", "IC50": 33.9},
      {"molecule": "Cc1cc(Nc2ncc(F)c(C(F)F)n2)cc(-c2cn(CC3CNC(=O)O3)nn2)c1", "note": "(stereo not drawn) [Example 7.36, 5-{[4-(3-{[4-(difluoromethyl)-5-fluoropyrimidin-2-yl]amino}-5-methylphenyl)-1H-1,2,3-triazol-1-yl]methyl}-1,3-oxazolidin-2-one]", "IC50": 16.2},
      {"molecule": "Cc1cc(Nc2cc(C(F)(F)F)ccn2)nc(-c2cn(CC3(O)CCCCC3O)nn2)c1", "note": "(stereo not drawn) [Example 10.10, 1-{[4-(4-methyl-6-{[4-(trifluoromethyl)pyridin-2-yl]amino}pyridin-2-yl)-1H-1,2,3-triazol-1-yl]methyl}cyclohexane-1,2-diol]", "IC50": 19.6},
      {"molecule": "Cc1cc(Nc2cc(C(F)(F)F)ccn2)nc(-c2cn(CC(C)(O)C(=O)O)nn2)c1", "note": "(stereo not drawn) [Example 4.18, 2-hydroxy-2-methyl-3-[4-(4-methyl-6-{[4-(trifluoromethyl)pyridin-2-yl]amino}pyridin-2-yl)-1H-1,2,3-triazol-1-yl]propanoic acid]", "IC50": 26.6},
      {"molecule": "Cc1cc(Nc2nccc(C(F)(F)F)n2)cc(-c2cn(CC(O)C(=O)O)nn2)c1", "note": "(racemic) [Example 5.61, 2-hydroxy-3-[4-(3-methyl-5-{[4-(trifluoromethyl)pyrimidin-2-yl]amino}phenyl)-1H-1,2,3-triazol-1-yl]propanoic acid]", "IC50": 29.4},
      {"molecule": "Cc1cc(Nc2nccc(C(F)(F)F)n2)cc(-c2nc[nH]n2)c1", "note": "[Example 2.14, N-[3-methyl-5-(1H-1,2,4-triazol-3-yl)phenyl]-4-(trifluoromethyl)pyrimidin-2-amine]", "IC50": 281},
      {"molecule": "COC(=O)C1CCC(O)(Cn2cc(-c3cc(C)cc(Nc4nccc(C(F)(F)F)n4)c3)nn2)CC1(C)C", "note": "(stereo not drawn) [Example 4.11, methyl 4-hydroxy-2,2-dimethyl-4-{[4-(3-methyl-5-{[4-(trifluoromethyl)pyrimidin-2-yl]amino}phenyl)-1H-1,2,3-triazol-1-yl]methyl}cyclohexanecarboxylate]", "IC50": 145},
      {"molecule": "Cc1cc(Nc2cc(C(F)(F)F)ccn2)nc(-c2cn(C3(CO)CCC3)nn2)c1", "note": "[Example 13.6, {1-[4-(4-methyl-6-{[4-(trifluoromethyl)pyridin-2-yl]amino}pyridin-2-yl)-1H-1,2,3-triazol-1-yl]cyclobutyl}methanol]", "IC50": 3.2},
      {"molecule": "Cc1cc(Nc2cc(C(F)(F)F)ccn2)nc(-c2cn(CCC(N)=O)nn2)c1", "note": "[Example 1.3, 3-[4-(4-methyl-6-{[4-(trifluoromethyl)pyridin-2-yl]amino}pyridin-2-yl)-1H-1,2,3-triazol-1-yl]propanamide]", "IC50": 3.8},
      {"molecule": "Cc1cc(Nc2cc(C(F)(F)F)ccn2)nc(-c2cn(C(C)C(=O)NCc3cccc4nsnc34)nn2)c1", "note": "(stereo not drawn) [Example 1.33, N-(2,1,3-benzothiadiazol-4-ylmethyl)-2-[4-(4-methyl-6-{[4-(trifluoromethyl)pyridin-2-yl]amino}pyridin-2-yl)-1H-1,2,3-triazol-1-yl]propanamide]", "IC50": 325},
      {"molecule": "Cc1cc(Nc2cc(C(F)(F)F)ccn2)nc(-c2cn(C(C)C(=O)NCCc3ccccc3Oc3ccccc3)nn2)c1", "note": "(stereo not drawn) [Example 1.42, 2-[4-(4-methyl-6-{[4-(trifluoromethyl)pyridin-2-yl]amino}pyridin-2-yl)-1H-1,2,3-triazol-1-yl]-N-[2-(2-phenoxyphenyl)ethyl]propanamide]", "IC50": 912},
      {"molecule": "Cc1cc(Nc2nccc(C(F)(F)F)n2)cc(-c2cn(CC(=O)N3CCOCC3(C)C)nn2)c1", "note": "[Example 5.66, N-(3-{1-[2-(3,3-dimethylmorpholin-4-yl)-2-oxoethyl]-1H-1,2,3-triazol-4-yl}-5-methylphenyl)-4-(trifluoromethyl)pyrimidin-2-amine]", "IC50": 152},
      {"molecule": "COc1ccc(C2CN(C(=O)C(C)n3cc(-c4cc(C)cc(Nc5cc(C(F)(F)F)ccn5)n4)nn3)CCS2)cc1", "note": "(stereo not drawn) [Example 1.45, 6-(1-{2-[2-(4-methoxyphenyl)thiomorpholin-4-yl]-1-methyl-2-oxoethyl}-1H-1,2,3-triazol-4-yl)-4-methyl-N-[4-(trifluoromethyl)pyridin-2-yl]pyridin-2-amine]", "IC50": 172},
      {"molecule": "Cc1cc(Nc2cc(C(F)(F)F)ccn2)nc(-c2cn(C(C)C(=O)NCCc3cn(C)c4ccccc34)nn2)c1", "note": "(stereo not drawn) [Example 1.51, N-[2-(1-methyl-1H-indol-3-yl)ethyl]-2-[4-(4-methyl-6-{[4-(trifluoromethyl)pyridin-2-yl]amino}pyridin-2-yl)-1H-1,2,3-triazol-1-yl]propanamide]", "IC50": 186},
      {"molecule": "Cc1cc(Nc2cc(C(F)(F)F)ccn2)nc(-c2cn(C(C)C(=O)N[C@H]3C[C@@H]3c3ccccc3)nn2)c1", "note": "(stereo partly drawn) [Example 1.40, 2-[4-(4-methyl-6-{[4-(trifluoromethyl)pyridin-2-yl]amino}pyridin-2-yl)-1H-1,2,3-triazol-1-yl]-N-[(1S,2R)-2-phenylcyclopropyl]propanamide]", "IC50": 118},
      {"molecule": "Cc1cc(Nc2cc(C(F)(F)F)ccn2)nc(-c2cn(CC(O)c3ccc(C(=O)O)cc3)nn2)c1", "note": "(stereo not drawn) [Example 3.18, 4-{1-hydroxy-2-[4-(4-methyl-6-{[4-(trifluoromethyl)pyridin-2-yl]amino}pyridin-2-yl)-1H-1,2,3-triazol-1-yl]ethyl}benzoic acid]", "IC50": 1.9},
      {"molecule": "Cc1cc(Nc2cc(C(F)(F)F)ccn2)nc(-c2cn([C@H](C)c3ccc(C(=O)O)cc3)nn2)c1", "note": "[Example 9.5, 4-{(1R)-1-[4-(4-methyl-6-{[4-(trifluoromethyl)-pyridin-2-yl]amino}pyridin-2-yl)-1H-1,2,3-triazol-1-yl]ethyl}benzoic acid]", "IC50": 8.1},
      {"molecule": "CC/C=C/Cn1cc(-c2cc(C)cc(Nc3cc(C(F)(F)F)ccn3)n2)nn1", "note": "[Example 5.31, 4-methyl-6-{1-[(2E)-pent-2-en-1-yl]-1H-1,2,3-triazol-4-yl}-N-[4-(trifluoromethyl)pyridin-2-yl]pyridin-2-amine]", "IC50": 48.6},
      {"molecule": "Cc1cc(Nc2cc(C(F)(F)F)ccn2)nc(-c2cn(Cc3[nH]cnc3C)nn2)c1", "note": "[Example 5.106, 4-methyl-6-{1-[(4-methyl-1H-imidazol-5-yl)methyl]-1H-1,2,3-triazol-4-yl}-N-[4-(trifluoromethyl)pyridin-2-yl]pyridin-2-amine]", "IC50": 1.6},
      {"molecule": "Cc1cc(Nc2nccc(C(F)(F)F)n2)cc(-c2cn(CCO)nn2)c1", "note": "[Example 5.1, 2-(4-(3-Methyl-5-((4-(trifluoromethyl)pyrimidin-2-yl)amino)phenyl)-1H-1,2,3-triazol-1-yl)ethanol]", "IC50": 14.9},
      {"molecule": "Cc1cc(Nc2cc(C(F)(F)F)ccn2)nc(-c2cn([C@H](C)C(N)=O)nn2)c1", "note": "[Example 1.23, (2R)-2-[4-(4-methyl-6-{[4-(trifluoromethyl)pyridin-2-yl]amino}pyridin-2-yl)-1H-1,2,3-triazol-1-yl]propanamide]", "IC50": 6.8},
      {"molecule": "Cc1cc(Nc2nccc(C)n2)cc(-c2cn(C3CCCCC3(C)O)nn2)c1", "note": "(single isomer, unassigned) [Example 7.28, 1-methyl-2-(4-{3-methyl-5-[(4-methylpyrimidin-2-yl)amino]phenyl}-1H-1,2,3-triazol-1-yl)cyclohexanol]", "IC50": 77.6},
      {"molecule": "Cc1cc(Nc2nccc(C(F)F)n2)cc(-c2cn(C(C)C3CNC(=O)O3)nn2)c1", "note": "(single isomer, unassigned) [Example 7.2, 5-(1-(4-(3-((4-(Difluoromethyl)pyrimidin-2-yl)amino)-5-methylphenyl)-1H-1,2,3-triazol-1-yl)ethyl)oxazolidin-2-one]", "IC50": 3.3},
      {"molecule": "Cc1cc(Nc2cc(C(F)(F)F)ccn2)nc(-c2cn(CC(O)CN3CCOC3=O)nn2)c1", "note": "(stereo not drawn) [Example 4.33, 3-{2-hydroxy-3-[4-(4-methyl-6-{[4-(trifluoromethyl)pyridin-2-yl]amino}pyridin-2-yl)-1H-1,2,3-triazol-1-yl]propyl}-1,3-oxazolidin-2-one]", "IC50": 14.9},
      {"molecule": "Cc1cc(Nc2nccc(C(F)F)n2)cc(-c2cn(C(C)C3CNC(=O)O3)nn2)c1", "note": "(single isomer, unassigned) [Example 7.3, 5-(1-(4-(3-((4-(difluoromethyl)pyrimidin-2-yl)amino)-5-methylphenyl)-1H-1,2,3-triazol-1-yl)ethyl)oxazolidin-2-one]", "IC50": 5.5},
      {"molecule": "COc1ccnc(Nc2cc(C)cc(-c3cn(CC(C)(O)C(C)(C)O)nn3)c2)n1", "note": "(stereo not drawn) [Example 21.12, 1-(4-{3-[(4-methoxypyrimidin-2-yl)amino]-5-methylphenyl}-1H-1,2,3-triazol-1-yl)-2,3-dimethylbutane-2,3-diol]", "IC50": 28.3},
      {"molecule": "COC(=O)c1ccc(C(O)Cn2cc(-c3cc(C)cc(Nc4cc(C(F)(F)F)ccn4)n3)nn2)cc1", "note": "(stereo not drawn) [Example 4.17, methyl 4-{1-hydroxy-2-[4-(4-methyl-6-{[4-(trifluoromethyl)pyridin-2-yl]amino}pyridin-2-yl)-1H-1,2,3-triazol-1-yl]ethyl}benzoate]", "IC50": 26.6},
      {"molecule": "Cc1cc(Nc2nccc(C(F)(F)F)n2)cc(-c2cn(CCCN)nn2)c1", "note": "[Example 5.48, N-{3-[1-(3-aminopropyl)-1H-1,2,3-triazol-4-yl]-5-methylphenyl}-4-(trifluoromethyl)pyrimidin-2-amine]", "IC50": 32.9},
      {"molecule": "Cc1cc(Nc2cc(C(F)(F)F)ccn2)nc(-c2cn(CC(C)(C)O)nn2)c1", "note": "[Example 5.97, 2-methyl-1-[4-(4-methyl-6-{[4-(trifluoromethyl)pyridin-2-yl]amino}pyridin-2-yl)-1H-1,2,3-triazol-1-yl]propan-2-ol]", "IC50": 15}
    ]}
  ]
}
